Experimental data as given in patent publication US20140010876A1, “PHARMACEUTICAL ADMINISTRATION FORMS COMPRISING 5-CHLORO-N-(METHYL)-2-THIOPHENECARBOXAMIDE” (BAYER PHARMA AKTIENGESELLSCHAFT, priority 2012, published 2014).

Assay: solubility of the active compound (I) in water
Format: physicochemical
Procedure: During the development of formulations, the physicochemical characteristics have to be taken into account in combination with the particular biological properties of the active compound (I). The physicochemical characteristics include, for example, the poor solubility of the active compound (I) in water (about 7 mg/l). The particular biological properties of the active compound (I) are a food-dependent bioavailability (the “food effect”) which, in the case of rapid-release tablet formulations, is noticeable at dosages from about 15 mg, and a limited absorption from the lower sections of the intestine. As a consequence, the desired administration once daily requires specific pharmaceutical formulations releasing the active compound (I) taking into account its biopharmaceutical characteristics, such that on the one hand the active compound (I) is present in an amount sufficient to have a pharmaceutical effect and that on the other hand the active compound (I) is released in a manner such that its challenging properties with respect to solubility, food effect and absorption are overcome.

O=C(NC[C@H]1CN(c2ccc(N3CCOCC3=O)cc2)C(=O)O1)c1ccc(Cl)s1 [active compound (I), 5-chloro-N-({(5S)-2-oxo-3-[4-(3-oxo-4-morpholinyl)phenyl]-1,3-oxazolidin-5-yl}methyl)-2-thiophenecarboxamide]
solubility: ~7 µg/mL
